Values joined by “and” are separate entries in the source; they are usually repeats but may differ in a detail not shown here. Equal entries are not always repeated. Active and inactive are the calls of the source. No rule for the calls is given here.
Assays:
[1] = Confirmatory dose response, V. cholerae WN1103 δluxq inducers of light production, absence of autoinducers (AID 686930); details: V. cholerae WN1103 ΔluxQ, lux luminescence, 6 h
[2] = test system: V. cholerae WN1103 ΔluxQ, lux luminescence, 6 h; experiment: as above

Compound	light induction (activation) ([1]; at 80 µM (top of the series))	light induction (activation) ([1]; at 100 µM (top of the series))	AC40 [2]	other results
COc1ccc2c(=O)ncn(-c3cccc(Cl)c3)c2c1	0.054% (inactive)	–	–	–
COc1ccc(S(=O)(=O)Nc2nnc(-c3ccc4c(c3)OCCO4)o2)cc1	–	-0.015% (inactive)	–	–
Cn1cnc(=O)c2ccccc21	0.063% (inactive)	–	–	–
Cn1nc(NC(=O)c2ccco2)c2cccnc21	–	–	44.1 µM	–
O=c1ncn(-c2cccc(F)c2)c2ccccc12	–	–	0.302 µM	–
CCCCCCCCCC(=O)C(O)CC (configuration not stated)	–	–	0.848 µM	–
O=C(CC1CCCCC1)Nc1nnc(-c2ccc3c(c2)CCCC3)o1	–	–	–	light induction (activation) ([1]; at 35 µM (top of the series)): 0.068% (inactive)
O=c1ncn(-c2ccccc2Cl)c2ccccc12	5% (inactive)	–	–	–
O=c1ncn(-c2cccc(Cl)c2)c2cc(Cl)ccc12	0.848% (inactive)	–	–	–
O=C(Nc1nnc(-c2ccccc2Cl)o1)C1CCCCC1	–	0.001% (inactive)	–	–
COc1cccc(-c2nnc(NC(=O)C3CCCCC3)o2)c1	–	0.041% (inactive)	–	–
O=c1nc(Cc2ccccc2)n(-c2cccc(Cl)c2)c2ccccc12	17.7% (inactive)	–	–	–
O=c1ncn(-c2ccc(Cl)c(Cl)c2)c2ccccc12	0.121% (inactive)	–	–	–
Cc1ccc2cc3c(NC(=O)c4ccoc4)nn(C)c3nc2c1	6.06% (inactive)	–	–	–
O=C(Nc1nnc(-c2cccc(Cl)c2)o1)C1CCCCC1	0.053% (inactive)	–	–	–
c1ccc(CNc2nnc(-c3ccc4c(c3)OCCO4)o2)cc1	–	0.006% (inactive)	–	–
Cn1nc(NC(=O)c2ccco2)c2ccccc21	–	3.2% (inactive)	–	–
CN(C)/C=N/c1nnc(-c2ccc3c(c2)OCCO3)o1	–	0.028% (inactive)	–	–
O=c1ncn(-c2cccc(Cl)c2)c2ccccc12	–	–	0.0667 µM and 0.362 µM	–
O=C(Nc1nnc(-c2ccc3c(c2)OCCO3)o1)C1CCCC1	0.121% (inactive)	–	–	–
O=C(CC1CCCCC1)Nc1nnc(-c2cccnc2)o1	-0.002% (inactive)	–	–	–
Cn1nc(NC(=O)c2ccco2)c2cc3ccc(C(C)(C)C)cc3nc21	–	-0.007% (inactive)	–	–
O=c1ncn(-c2cc(Cl)cc(Cl)c2)c2ccccc12	–	–	1.09 µM	–

Compound	light induction (activation) ([1]; at 80 µM (top of the series))	light induction (activation) ([1]; at 100 µM (top of the series))	AC40 [2]	other results
Cc1ccc2cc3c(NC(=O)c4cc5ccccc5o4)nn(C)c3nc2c1	–	-0.001% (inactive)	–	–
CC(C)c1ccc2cc3c(NC(=O)c4ccco4)nn(C)c3nc2c1	–	0.362% (inactive)	–	–
Cc1cccc(-n2cnc(=O)c3ccccc32)c1	–	–	0.199 µM	–
Cc1ccc2cc3c(NC(=O)c4ccccn4)nn(C)c3nc2c1	–	-0.007% (inactive)	–	–
O=C(Nc1nnc(-c2ccc3c(c2)OCCO3)o1)C1CCCCC1	–	–	5.8 µM and 1.96 µM	–
Cc1ccc2cc3c(NC(=O)Cc4ccco4)nn(C)c3nc2c1	–	0.668% (inactive)	–	–
NC(=O)c1ccccc1Nc1cccc(Cl)c1	0.32% (inactive)	–	–	–
O=C(CSc1nc2c(c(=O)[nH]1)CCCC2)NC1CCCCC1	1.52% (inactive)	–	–	–
CCOC(=O)c1ccccc1Nc1cccc(Cl)c1	0.033% (inactive)	–	–	–
O=C(Nc1nnc(-c2ccc3c(c2)OCCO3)o1)C1CCC1	–	0.014% (inactive)	–	–
O=C1C(=O)N(Cc2ccccc2Cl)c2ccccc21	0.599% (inactive)	–	–	–
COc1ccc(-n2cnc(=O)c3ccccc32)cc1Cl	1.24% (inactive)	–	–	–
NC(=O)c1ccccc1Nc1ccccc1	1.21% (inactive)	–	–	–
Cn1ccc(NC(=O)c2ccco2)n1	–	0.057% (inactive)	–	–
COc1ccc(-c2nnc(NC(=O)C3CCCCC3)o2)cc1	–	–	> 100 µM (inactive)	–
O=C(Cc1ccc(-c2ccccc2)cc1)N[C@@H]1CCOC1 (racemic)	–	–	31.2 µM	–
Cc1nc(=O)c2ccccc2n1-c1cccc(Cl)c1	–	–	18.1 µM	–
COc1ccc2cc3c(NC(=O)c4ccco4)nn(C)c3nc2c1	–	–	0.901 µM	–
COC(=O)c1ccccc1Nc1cccc(Cl)c1	0.819% (inactive)	–	–	–
CCc1nc(=O)c2ccccc2n1-c1cccc(Cl)c1	0.68% (inactive)	–	–	–
O=C(Cc1ccc(-c2ccccc2)cc1)NC1CCC1	–	–	5.06 µM	–
CCn1nnnc1/N=C/c1ccc(N2CCCCC2)cc1	–	1.21% (inactive)	–	–
CCC(C)(C)C(=O)Nc1nnc(-c2ccc3c(c2)OCCO3)o1	-0.001% (inactive)	–	–	–

Compound	light induction (activation) ([1]; at 80 µM (top of the series))	light induction (activation) ([1]; at 100 µM (top of the series))	AC40 [2]	other results
O=C(Nc1nnc(-c2ccc3c(c2)CCCC3)o1)C1CCC1	0.009% (inactive)	–	–	–
O=S(=O)(Nc1nnc(-c2ccc3c(c2)OCCO3)o1)c1ccc(Cl)cc1	–	-0.019% (inactive)	–	–
O=c1ncn(-c2ccc(Cl)cc2)c2ccccc12	0.086% (inactive)	–	–	–
CCn1nnnc1NC(C)c1ccc(N2CCCC2)cc1 (configuration not stated)	–	–	34.7 µM	–
O=C(Nc1nnc(-c2ccc3c(c2)OCCO3)o1)C1CC1	–	0.003% (inactive)	–	–
O=C(Cc1ccc(-c2ccccc2)cc1)NC1CNC1	–	0.006% (inactive)	–	–
O=c1nc(-c2ccccc2)n(-c2cccc(Cl)c2)c2ccccc12	-0.003% (inactive)	–	–	–
Cn1nc(NC(=O)c2ccco2)c2cc3ccccc3nc21	–	–	4.12 µM	–
Cc1cc2nc3c(cc2cc1F)c(NC(=O)c1ccco1)nn3C	–	–	57.3 µM	–
C(=N\c1nnc(-c2ccc3c(c2)OCCO3)o1)/c1ccccc1	–	0.005% (inactive)	–	–
O=C(Nc1nnc(-c2cccnc2)o1)C1CCC1	–	-0.007% (inactive)	–	–
O=c1ncn(-c2cccc(Cl)c2)c2cccc(Cl)c12	0.081% (inactive)	–	–	–
CCn1nnnc1N	–	0.029% (inactive)	–	–
CC(C)(C)OC(=O)N1CCC(C(=O)Nc2nnc(-c3ccc4c(c3)OCCO4)o2)CC1	–	0.028% (inactive)	–	–
O=C(O)c1ccccc1Nc1cccc(Cl)c1	0.041% (inactive)	–	–	–
O=C(Nc1nnc(-c2ccc3c(c2)OCCO3)o1)C1CCCCCC1	–	–	9.05 µM	–
O=C(Cc1ccc(-c2ccccc2)cc1)NC1COC1	–	32.6% (inactive)	–	–
Cc1cc2cc3c(NC(=O)c4ccco4)nn(C)c3nc2cc1C	–	–	71.7 µM	–
O=C(CSc1nc2ccccc2c(=O)[nH]1)NC1CCCCC1	0.011% (inactive)	–	–	–
O=c1ncn(-c2ccccc2)c2ccccc12	–	–	0.361 µM	–
Cc1ccc2cc3c(NC(=O)c4cccs4)nn(C)c3nc2c1	–	–	> 80 µM (inactive)	–
O=C(Nc1nnc(-c2ccc(Cl)cc2)o1)C1CCCCC1	0.835% (inactive)	–	–	–
CCCCCCCCCC(=O)[C@H](O)CC (racemic)	–	–	1.92 µM	–

Compound	light induction (activation) ([1]; at 80 µM (top of the series))	light induction (activation) ([1]; at 100 µM (top of the series))	AC40 [2]	other results
COc1ccccc1-c1nnc(NC(=O)C2CCCCC2)o1	–	–	> 100 µM (inactive)	–
O=c1[nH]cnc2ccccc12	0.044% (inactive)	–	–	–
O=C(Nc1nnc(-c2ccncc2)o1)C1CCC1	–	0.061% (inactive)	–	–
O=c1ncn(-c2cccc(Cl)c2)c2ccc(Cl)cc12	–	–	1.33 µM	–
CC(C)(C)COC(=O)CSc1n[nH]c(=O)[nH]c1=O	–	–	18.9 µM	–
O=C1C(=O)N(Cc2cccc(Cl)c2)c2ccccc21	0.237% (inactive)	–	–	–
Cc1ccc2c(=O)ncn(-c3cccc(Cl)c3)c2c1	0.092% (inactive)	–	–	–
Cc1cc(F)c2cc3c(NC(=O)c4ccco4)nn(C)c3nc2c1	–	–	47 µM	–
COc1cccc(-n2cnc(=O)c3ccccc32)c1	12% (inactive)	–	–	–
Cc1ccc2cc3c(NC(=O)c4ccc(C)o4)nn(C)c3nc2c1	–	8.61% (inactive)	–	–
Cc1ccc2cc3c(NC(=O)C4CCCC4)nn(C)c3nc2c1	–	–	59.3 µM	–
Cc1ccc(-n2cnc(=O)c3ccccc32)cc1Cl	0.708% (inactive)	–	–	–
Cc1cc(F)cc2nc3c(cc12)c(NC(=O)c1ccco1)nn3C	–	–	27.1 µM	–
O=C(Nc1nnc(-c2cccnc2)o1)C1CCCCC1	–	7.84% (inactive)	–	–
CN1CCC(C(=O)Nc2nnc(-c3ccc4c(c3)OCCO4)o2)CC1	–	0.046% (inactive)	–	–
O=C(Nc1nnc(-c2ccc3c(c2)OCCO3)o1)C(F)(F)c1ccccc1	–	-0.027% (inactive)	–	–
COc1ccc(-c2nnc(NC(C)=O)o2)cc1	–	0.052% (inactive)	–	–
O=c1ncn(-c2ccc(F)c(Cl)c2)c2ccccc12	–	–	5.38 µM	–
CCn1nnnc1NCc1ccc(C(C)C)cc1	–	–	0.255 µM	–
Cc1ccc2c(c1)c(=O)ncn2-c1cccc(Cl)c1	–	–	1.45 µM	–
O=c1ncn(Cc2ccc(Cl)cc2)c2ccccc12	3.21% (inactive)	–	–	–
CCc1ccc2cc3c(NC(=O)c4ccco4)nn(C)c3nc2c1	–	–	42.1 µM	–
O=C(Nc1nnc(C2CCCC2)o1)C1CCCCC1	–	0.003% (inactive)	–	–

— PubChem BioAssay AID686930 (Broad Institute, 2013)
